Assay results taken from PMC11609934, “Exploration and characterization of the antimalarial activity of cyclopropyl carboxamides that target the mitochondrial protein, cytochrome b” (European Journal of Medicinal Chemistry, 2024).
Where two headings read alike, the source gives them in different places.

What was measured:
[1] = system: 3D7 P. falciparum strain; experiment: Parasite reduction ratio (PRR) assay; assay type: cell-based, Plasmodium falciparum; settings: 10 times the EC50, up to 120 h
Method: The parasite reduction ratio (PRR) assay is a benchmark assay used to determine the speed of kill of antimalarials at an early stage of development. […] After 28 days of incubation, parasite growth is measured using an LDH assay.
Parasite Reduction Ratio Assay. This is a platform assay conducted by TGC Lifesciences using a previously described protocol. […] Parasites were treated up to 120 h. Drug was renewed every 24 h over the entire treatment period (as directed). Samples of parasites were taken from the treated culture every 24 h (24, 48, 72, 96 and 120 h time points), drug was washed out and drug-free parasites were cultured in 96 well plates. To quantify number of viable parasites after treatment, serial dilutions were performed with the above-mentioned compounds after washing out the compound. Parasites were cultured in microtiter plates to allow all wells with viable parasites, to render detectable parasitaemia. After 22 days of culturing, cultured plates were checked for parasite growth. Final sampling was done after 28 days to confirm growth/no growth. The parasite levels were determined using a LDH assay as follows. A culture of parasitized red blood cells (RBC) of strain 3D7 with 0.25 % parasitaemia and 2 % haematocrit in RPMI-1640, 0.5 % albumax and 150 μM hypoxanthine is exposed to 3-fold serial dilutions of the compound. […]

[2] = system: W466-resistant populations; experiment: 72 h growth assay against W466-resistant populations; assay type: cell-based, Plasmodium falciparum; settings: for EC50: Plasmodium falciparum
Excerpt: To determine the mechanism of action of the cyclopropyl carboxamide series, a forward genetic resistance study was undertaken on the two hit compounds W466 (1) and W499 (2).
The structures of W466 (1) and W499 (2) are slightly different although they appear to belong to the same structural class. To confirm if W466 (1) and W499 (2) may have the same molecular target, W466 (1) and W499 (2) were each evaluated for cross resistance against their respective resistant populations from the pulsed forward genetic study (Fig. 2).

[3] = system: female gamete; experiment: Dual gamete formation assay, female gametes; assay type: cell-based; settings: Plasmodium falciparum; NF54 parasites in a DGFA, 4 replicates
Method: To determine whether the cyclopropyl carboxamide class has transmission blocking potential we profiled selected analogs in a dual gamete formation assay. In this assay, stage V gametocytes are treated with compound, and gametogenesis is induced by the addition of xanthurenic acid. Male gamete viability is determined by an imaging algorithm measuring motile flagellation, while female viability is measured using an antibody to the female-specific Pfs25 surface marker. […] Collectively, the activity observed against male gametes is consistent with activity observed with other cyt b inhibitors.
Dual Gamete Formation Assay. Compounds were evaluated as previously described as a platform run at both Imperial College London and the London School of Hygiene and Tropical Medicine. Briefly, mature stage V gametocytes were exposed to compounds for 48 h at 37 °C in 384 well plates in gametocyte culture medium (RPMI 1640 supplemented with 25 mM HEPES, 50 μg/mL hypoxanthine, 4.8 g/L NaHCO3, 2 mM L-glutamine, 5 % pooled type AB serum, 0.5 % Albumax II (Gibco)) under a 1 % O2/3 % CO2/96 % N2 environment. Gametogenesis was then triggered by the addition of 10 μL ookinete medium (gametocyte culture medium supplemented with 100 μM xanthurenic acid and 0.27 μg/mL Cy3-labelled anti-Pfs25 antibody) to each well at room temperature. Plates were then cooled on a metal block at 4 °C for 4 min to ensure even cooling and then stabilized for a further 4 min at 28 °C. At 20 min post-induction, male gametogenesis was recorded in each well by automated brightfield microscopy using a × 4 objective lens and 1.5 × magnifier ( × 6 effective magnification). Afterward, plates were incubated in the dark at room temperature for 24 h and then female gametogenesis recorded in each well by automated fluorescence microscopy (anti-Pfs25-positive cells). […] All data was evaluated in comparison to the positive and negative controls to calculate percentage inhibition of male and female gametocytes, and dose response analysis and EC50 calculation performed using GraphPad Prism.

[4] = system: ring-stage P. falciparum parasites; experiment: Asexual stage of arrest assay; assay type: cell-based, Plasmodium falciparum; settings: 10 times EC50, sampled every 12 h for 48 h
Method: Characterization of asexual stage phenotype and rate of asexual kill is important in determining the downstream application and TCP of an antimalarial series. […] Parasites were sampled every 12 h for 48 h, to prepare Giemsa-stained blood smears for analysis by microscopy. Parasitemia of each sample was measured by flow cytometry using SYBR-Green DNA staining.
Asexual Stage of Arrest Assay. This assay was conducted as previously described.

[5] = system: P. berghei ANKA parasites; experiment: P. berghei 4-day mouse model; assay type: in vivo, Plasmodium berghei
Method: The 4-day P. berghei mouse model is used to determine the preliminary in vivo efficacy of antimalarials at an early stage of optimization. To determine if cyclopropyl carboxamide series could reduce asexual blood stage infection, we evaluated representative compounds WJM280 (108) and analog 109 in the 4-day P. berghei mouse model. In this model, mice were infected P. berghei asexual stage parasites, and then 2 h after the infection, WJM280 (108) and analog 109 at 50 mg/kg and artesunate at 30 mg/kg were administered by oral gavage. The same compound doses were administered again, 24, 48, and 72 h post infection. Parasitemia was then quantified by preparing blood smears and visualizing by microscopy across days 2, 3, and 4. […] The inability of these compounds to reduce parasitemia was attributed to their high metabolic turnover, which is a characteristic that needs improving on further development of the cyclopropyl carboxamide class.
P. berghei 4-day Mouse Model. This model was conducted as previously described.

[6] = system: Pf Dd2 parental line; experiment: Asexual stage assay, Dd2 parental line (SYBR green by FACS, 72 h); assay type: cell-based; settings: Plasmodium falciparum, DD2, 72 h, read-out: Pf Dd2 EC50 (SD), 72 h, SYBR green by FACS, 3 experiments
Method: Cyt b Resistant and ScDHODH Asexual Stage Assays. These assays were conducted as previously described. Briefly, asexual parasite strains indicated in Table 12 were incubated with compound in a dose response format for 72 h. Parasitemia was determined using SYBR-green fluorescence measured by flow cytometry (Thermo Fisher Attune). EC50 values were determined as described for the LDH assay.

SMILES | rate of kill in PRR assay [1] | fold shift in EC50 against W466-resistant populations compared to wildtype 3D7 [2] | EC50 ([2]; read-out: EC50 against W466-resistant parasites) | EC50 ([2]; read-out: W466-resistant populations EC50 (SD) #1) | EC50 ([2]; read-out: W466-resistant populations EC50 (SD) #2) | EC50 ([2]; read-out: W466-resistant populations EC50 (SD) #3) | EC50 [3] | asexual stage of arrest [4] | body weights of mice ([5]; 50 mg/kg q.d. oral, 4 days) | % parasitemia ([5]; mice, day 4, oral gavage q.d. x4, 50 mg/kg (ART 30 mg/kg)) | % reduction in parasitemia ([5]; versus vehicle control, mice, day 4, oral gavage q.d. x4, 50 mg/kg (ART 30 mg/kg)) | EC50 [6]
O=C(NC1CC1)c1ccc(CN(Cc2ccc(Cl)cc2Cl)C2CC2)cc1 [W499 (2)] | moderate to slow rate of kill | 2 fold | 220 to 280 nM | 283 nM | 243 nM | 215 nM | > 25000 nM | parasite arrest at the start of the trophozoite stage |  |  |  | 
CCCN(Cc1ccc(C(=O)NC2CC2)cc1)Cc1ccc(C(F)(F)F)cc1 [WJM280 (108), N-Cyclopropyl-4-((propyl(4-(trifluoromethyl)benzyl)amino)methyl)benzamide] |  |  |  |  |  |  |  |  | remained unchanged | 81% | 19% | 10 nM
